Values joined by “and” are separate entries in the source; they are usually repeats but may differ in a detail not shown here. Equal entries are not always repeated. Toxic doses and inconclusive results are not listed.
Test system: P388 leukemia ip, CD2F1 mice, survival T/C
Experiment: NCI In Vivo Anticancer Drug Screen. Data for tumor model P388 Leukemia (intraperitoneal) in CD2F1 (CDF1) mice
Settings: endpoint: median survival time, higher = longer survival
In short: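 Mice carrying the transplanted tumor received test compound or vehicle. Survival was recorded in each group, and the value is the treated-group measurement divided by that of the vehicle-treated control group.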

[1] = dose: 50.0 mg/kg/injection, schedule: Q01DX005 (ip), vehicle: Klucel (hydroxypropylcellulose) (HPC)
[2] = dose: 100.0 mg/kg/injection, schedule: Q01DX005 (ip), vehicle: Klucel (hydroxypropylcellulose) (HPC)
[3] = dose: 200.0 mg/kg/injection, schedule: Q01DX005 (ip), vehicle: Klucel (hydroxypropylcellulose) (HPC)
[4] = dose: 50.0 mg/kg/injection, schedule: Q01DX009 (ip), vehicle: Klucel (hydroxypropylcellulose) (HPC)
[5] = dose: 100.0 mg/kg/injection, schedule: Q01DX009 (ip), vehicle: Klucel (hydroxypropylcellulose) (HPC)
[6] = dose: 200.0 mg/kg/injection, schedule: Q01DX009 (ip), vehicle: Klucel (hydroxypropylcellulose) (HPC)
[7] = dose: 50.0 mg/kg/injection, schedule: Q01DX005 (ip), vehicle: saline with Tween-80
[8] = dose: 100.0 mg/kg/injection, schedule: Q01DX005 (ip), vehicle: saline with Tween-80
[9] = dose: 200.0 mg/kg/injection, schedule: Q01DX005 (ip), vehicle: saline with Tween-80
[10] = dose: 50.0 mg/kg/injection, schedule: Q01DX009 (ip), vehicle: saline with Tween-80
[11] = dose: 100.0 mg/kg/injection, schedule: Q01DX009 (ip), vehicle: saline with Tween-80

For `[Cl][Sn]([O][Sn]([Cl])([c]1ccccc1)[CH]1CCCCC1)([c]1ccccc1)[CH]1CCCCC1` (stereo not given), the T/C (dose: 0.19 mg/kg/injection, schedule: Q01DX005 (ip), vehicle: saline) was 100 % of control, the T/C (dose: 0.39 mg/kg/injection, schedule: Q01DX005 (ip), vehicle: saline) was 105 % of control and the T/C (dose: 0.79 mg/kg/injection, schedule: Q01DX005 (ip), vehicle: saline) was 117 % of control.
For `O=C1OI(O)c2ccccc21`, the T/C (dose: 60.0 mg/kg/injection, schedule: Q01DX005 (ip), vehicle: Klucel (hydroxypropylcellulose) (HPC)) was 106 % of control and the T/C (dose: 120.0 mg/kg/injection, schedule: Q01DX005 (ip), vehicle: Klucel (hydroxypropylcellulose) (HPC)) was 106 % of control.
For `CCC(C)C(NC(=O)OCC1c2ccccc2-c2ccccc21)C(=O)O` (stereo not given), the T/C [1] was 100 % of control, the T/C [2] was 100 % of control and the T/C [3] was 104 % of control.
For `CSc1nnc(CCC(=O)Nc2cc(Cl)c(Cl)cc2Cl)o1`, the T/C (dose: 60.0 mg/kg/injection, schedule: Q01DX005 (ip), vehicle: saline with Tween-80) was 106 % of control, the T/C (dose: 120.0 mg/kg/injection, schedule: Q01DX005 (ip), vehicle: saline with Tween-80) was 105 % of control and the T/C (dose: 240.0 mg/kg/injection, schedule: Q01DX005 (ip), vehicle: saline with Tween-80) was 98 % of control.
In the case of `Cc1ccnc(NC(O)C(Cl)(Cl)Cl)c1` (stereo not given), the T/C (dose: 25.0 mg/kg/injection, schedule: Q01DX009 (ip), vehicle: Klucel (hydroxypropylcellulose) (HPC)) is reported as 100 % of control, the T/C [4] is reported as 100 % of control and the T/C [5] is reported as 98 % of control. For the same compound, the T/C [6] was 100 % of control.
`O=S(=O)(CC(O)C(Cl)(Cl)Cl)NNc1ccccc1` (stereo not given) was tested, and the T/C (dose: 50.0 mg/kg/injection, schedule: Q01DX009 (ip), vehicle: saline) was 99 % of control and the T/C (dose: 100.0 mg/kg/injection, schedule: Q01DX009 (ip), vehicle: saline) was 112 % of control.
For `Nc1cccc(SC2CC(=O)N(c3ccc(Cl)cc3C(=O)c3ccccc3)C2=O)c1` (stereo not given), the T/C [4] was 105 % of control, the T/C [5] was 99 % of control and the T/C [6] was 89 % of control.
`NC(=S)Nc1ccccc1` was tested, and the T/C (dose: 2.5 mg/kg/injection, schedule: Q01DX009 (ip), vehicle: saline with Tween-80) was 100 % of control, the T/C (dose: 2.5 mg/kg/injection, schedule: Q04DX003 (ip), vehicle: saline sonified) was 100 % of control and the T/C (dose: 5.0 mg/kg/injection, schedule: Q01DX009 (ip), vehicle: saline with Tween-80) was 100 % of control. For the same compound, the T/C (dose: 5.0 mg/kg/injection, schedule: Q04DX003 (ip), vehicle: saline sonified) was 104 % of control, the T/C (dose: 10.0 mg/kg/injection, schedule: Q01DX009 (ip), vehicle: saline with Tween-80) was 100 % of control and the T/C (dose: 10.0 mg/kg/injection, schedule: Q04DX003 (ip), vehicle: saline sonified) was 95 % of control.
`Cn1c(-c2ccc(/C=N/N=C(\N)N/N=C/c3ccc(-c4c[n+]5ccsc5n4C)cc3)cc2)c[n+]2ccsc12` was tested, and the T/C (dose: 0.13 mg/kg/injection, schedule: Q01DX005 (ip), vehicle: saline) was 108 % of control and the T/C (dose: 0.25 mg/kg/injection, schedule: Q01DX005 (ip), vehicle: saline) was 121 % of control.
For `COCOCCC1C=CCC2C(=O)C=C(OC)C(O)C12C` (stereo not given), the T/C [1] was 108 % of control, the T/C [2] was 97 % of control and the T/C [3] was 101 % of control.
`Cc1ccc(S(=O)(=O)N/N=C/C(Br)=C(/Br)C(=O)O)cc1` was tested, and the T/C (dose: 25.0 mg/kg/injection, schedule: Q01DX009 (ip), vehicle: distilled water + Tween-80) was 154 % of control and 171 % of control and the T/C (dose: 50.0 mg/kg/injection, schedule: Q01DX009 (ip), vehicle: distilled water + Tween-80) was 157 % of control and 166 % of control.
`O=C1CCC(=O)Nc2ccc3nc4ccccc4c(c3c2)SCCCCCCCCCCCCSc2c3ccccc3nc3ccc(cc23)N1` was tested, and the T/C [7] was 110 % of control, the T/C [8] was 97 % of control and the T/C [9] was 107 % of control.
`CCCC1(CC)CNC(=O)NC1=O` (stereo not given) was tested, and the T/C [7] was 100 % of control, the T/C [8] was 93 % of control and the T/C [9] was 99 % of control.
For `CCOC(=O)C(C)(C)CN(CCCN(C)C)CC(C)(C)C(=O)OCC`, the T/C [10] was 105 % of control and the T/C [11] was 115 % of control.
In the case of `O=C1CCCCCC1Cc1cc(O)c(CC2CCCCCC2=O)cc1O` (stereo not given), the T/C (dose: 25.0 mg/kg/injection, schedule: Q01DX009 (ip), vehicle: saline with Tween-80) is reported as 96 % of control, the T/C [10] is reported as 93 % of control and the T/C [11] is reported as 98 % of control. The T/C (dose: 200.0 mg/kg/injection, schedule: Q01DX009 (ip), vehicle: saline with Tween-80) was 94 % of control.
